Assay results: US10294202B2, “Pyrrolidinones as herbicides” (FMC Corporation, priority 2013, dated 2019)

Columns and labels:
giant foxtail = assay: Test A pre-/postemergence herbicide test; format: in vivo, Setaria faberii
Outline: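 Both application timings used compounds in a non-phytotoxic solvent plus surfactant. Pre-emergence: soil sprayed directly after seeding into loam/sand. Post-emergence: foliage of 2–10 cm seedlings (1–2 leaves) sprayed. Injury rated ~10 days later, 0–100.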

crabgrass, large = assay: Test C pre-/postemergence herbicide test; format: in vivo, Digitaria sanguinalis
Outline: (§1)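 Herbicidal effect was judged by eye 13 to 15 days after treatment in the greenhouse, using a 0–100 scale against controls. Chemicals in a non-phytotoxic solvent with surfactant were sprayed onto planted loam/sand soil or onto plants 2 to 18 cm tall in a peat-based growing medium.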

corn = assay: Test C pre-/postemergence herbicide test; format: in vivo, Zea mays
Outline: as §1

velvetleaf = assay: Test C pre-/postemergence herbicide test; format: in vivo, Abutilon theophrasti
Outline: as §1

pigweed = assay: Test C pre-/postemergence herbicide test; format: in vivo, Amaranthus retroflexus
Outline: as §1

ducksalad = assay: Test C flooded paddy test; format: in vivo, Heteranthera limosa; settings: Flood, scale of 0 to 100 where 0 is no effect and 100 is complete control, 13 to 15 days
Outline: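 Plants at the 2-leaf stage in pots flooded to 3 cm were treated by applying compound directly to the paddy water, with depth held throughout. After 13 to 15 days in a greenhouse, response was rated visually against controls on a 0 (no effect) to 100 (complete control) scale.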

barnyardgrass = assay: Test B flooded paddy test; format: in vivo, Echinochloa crus-galli; settings: 500 g ai/ha, Flood; scale of 0 to 100 where 0 is no effect and 100 is complete control
Outline: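 Visual ratings from 0, meaning no effect, up to 100, meaning complete control, were made by comparison with untreated controls 13 to 15 days after treatment. Test compounds went straight into floodwater standing 3 cm over the soil of pots holding 2-leaf seedlings.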

foxtail, giant = assay: Test C pre-/postemergence herbicide test; format: in vivo, Setaria faberii
Outline: as §1

[1] = Postemergence, 125 g ai/ha, visual rating on 0 to 100 scale (0 no effect, 100 complete control), approx. 10 days
[2] = Postemergence, 500 g ai/ha, 0 to 100 scale (0 no effect, 100 complete control)
[3] = Preemergence, 125 g ai/ha, 0 to 100 scale where 0 is no effect and 100 is complete control
[4] = Preemergence, 500 g ai/ha, visual rating on 0 to 100 scale (0 no effect, 100 complete control)
[5] = Postemergence, 31 g ai/ha, scale 0 to 100 (0 no effect, 100 complete control)
[6] = Postemergence, 62 g ai/ha, scale 0 (no effect) to 100 (complete control)
[7] = Postemergence, 125 g ai/ha, scale 0 to 100 (0 no effect, 100 complete control)
[8] = Postemergence, 250 g ai/ha, scale 0 to 100 (0 no effect, 100 complete control)
[9] = Preemergence, 31 g ai/ha, scale 0 to 100, 0 is no effect and 100 is complete control
[10] = Preemergence, 62 g ai/ha, scale 0 to 100 (0 no effect, 100 complete control)
[11] = Preemergence, 125 g ai/ha, scale 0 to 100 (0 no effect, 100 complete control)
[12] = Preemergence, 125 g ai/ha, scale 0 to 100

For `CN1CC(c2ccc(F)c(F)c2)C(C(=O)Nc2cccc(F)c2F)C1=O` (centres unmarked) [Compound 303], the “Plant response rating, Foxtail, Giant” value (giant foxtail; [1]) was 80, the “Plant response rating, Foxtail, Giant” value (giant foxtail; [2]) was 80 and the “Plant response rating, Foxtail, Giant” value (giant foxtail; [3]) was 90. The “Foxtail, Giant plant response rating” value (giant foxtail; [4]) was 90, the “Plant response rating, Crabgrass, Large” value (crabgrass, large; [5]) was 0 and the “Plant response rating, Crabgrass, Large” value (crabgrass, large; [6]) was 40. The “Plant response rating, Crabgrass, Large” value (crabgrass, large; [7]) was 65, the “Plant response rating, Crabgrass, Large” value (crabgrass, large; [8]) was 90 and the “Crabgrass, Large plant response rating” value (crabgrass, large; [9]) was 95. The “Crabgrass, Large plant response rating” value (crabgrass, large; [10]) was 98, the “Plant response rating, Crabgrass, Large” value (crabgrass, large; [11]) was 98 and the “Plant response rating (scale of 0 to 100), Crabgrass, Large” value (crabgrass, large; Preemergence, 250 g ai/ha) was 100. For the same compound, the “Plant response rating, Corn” value (corn; [5]) was 0, the “Plant response rating, Corn” value (corn; [6]) was 0 and the “Plant response rating, Corn” value (corn; [7]) was 0. For the same compound, the “Plant response rating, Corn” value (corn; [8]) was 15, the “Corn plant response rating” value (corn; [9]) was 10 and the “Corn plant response rating” value (corn; [10]) was 20. For the same compound, the “Plant response rating, Corn” value (corn; [11]) was 35, the “Plant response rating (scale of 0 to 100), Corn” value (corn; Preemergence, 250 g ai/ha) was 45 and the “Plant response rating, Velvetleaf” value (velvetleaf; [5]) was 35. The “Plant response rating, Velvetleaf” value (velvetleaf; [6]) was 0, the “Plant response rating, Velvetleaf” value (velvetleaf; [7]) was 25 and the “Plant response rating, Velvetleaf” value (velvetleaf; [8]) was 35. The “Velvetleaf plant response rating” value (velvetleaf; [9]) was 10, the “Velvetleaf plant response rating” value (velvetleaf; [10]) was 25 and the “Plant response rating, Velvetleaf” value (velvetleaf; [11]) was 50. For the same compound, the “Plant response rating (scale of 0 to 100), Velvetleaf” value (velvetleaf; Preemergence, 250 g ai/ha) was 55, the “Plant response rating, Pigweed” value (pigweed; [5]) was 0 and the “Plant response rating, Pigweed” value (pigweed; [6]) was 0. For the same compound, the “Plant response rating, Pigweed” value (pigweed; [7]) was 10, the “Plant response rating, Pigweed” value (pigweed; [8]) was 25 and the “Pigweed plant response rating” value (pigweed; [9]) was 35. For the same compound, the “Pigweed plant response rating” value (pigweed; [10]) was 55, the “Plant response rating, Pigweed” value (pigweed; [11]) was 65 and the “Plant response rating (scale of 0 to 100), Pigweed” value (pigweed; Preemergence, 250 g ai/ha) was 80. For the same compound, the “Plant response rating, Ducksalad” value (ducksalad; 31 g ai/ha) was 50, the “Plant response rating, Ducksalad” value (ducksalad; 62 g ai/ha) was 60 and the “Plant response rating, Ducksalad” value (ducksalad; 125 g ai/ha) was 70. The “Plant response rating, Ducksalad” value (ducksalad; 250 g ai/ha) was 100, the “Plant response rating, Barnyardgrass” value (barnyardgrass) was 80 and the “Plant response rating, Foxtail, Giant” value (foxtail, giant; [6]) was 80. For the same compound, the “Plant response rating, Foxtail, Giant” value (foxtail, giant; [7]) was 85, the “Plant response rating, Foxtail, Giant” value (foxtail, giant; [8]) was 90 and the “Foxtail, Giant plant response rating” value (foxtail, giant; [9]) was 90. For the same compound, the “Foxtail, Giant plant response rating” value (foxtail, giant; [10]) was 95, the “Plant response rating, Foxtail, Giant” value (foxtail, giant; [11]) was 98 and the “Plant response rating (scale of 0 to 100), Foxtail, Giant” value (foxtail, giant; Preemergence, 250 g ai/ha) was 100.
`CC(C)c1cccc(C2CNC(=O)C2C(=O)Nc2ccccc2F)c1` (centres unmarked) [Compound 318] was tested, and the “Plant response rating, Foxtail, Giant” value (giant foxtail; [1]) was 40, the “Plant response rating, Foxtail, Giant” value (giant foxtail; [2]) was 70 and the “Plant response rating, Foxtail, Giant” value (giant foxtail; [3]) was 90. For the same compound, the “Foxtail, Giant plant response rating” value (giant foxtail; [4]) was 90, the “Crabgrass, Large plant response rating” value (crabgrass, large; [9]) was 95 and the “Crabgrass, Large plant response rating” value (crabgrass, large; [10]) was 98. For the same compound, the “Plant response rating, Crabgrass, Large” value (crabgrass, large; [12]) was 98, the “Plant response rating (scale of 0 to 100), Crabgrass, Large” value (crabgrass, large; Preemergence, 250 g ai/ha) was 100 and the “Corn plant response rating” value (corn; [9]) was 0. The “Corn plant response rating” value (corn; [10]) was 0, the “Plant response rating, Corn” value (corn; [12]) was 10 and the “Plant response rating (scale of 0 to 100), Corn” value (corn; Preemergence, 250 g ai/ha) was 60. The “Velvetleaf plant response rating” value (velvetleaf; [10]) was 10, the “Plant response rating, Velvetleaf” value (velvetleaf; [12]) was 25 and the “Pigweed plant response rating” value (pigweed; [9]) was 0. The “Pigweed plant response rating” value (pigweed; [10]) was 20, the “Plant response rating, Pigweed” value (pigweed; [12]) was 20 and the “Plant response rating, Ducksalad” value (ducksalad; 31 g ai/ha) was 50. The “Plant response rating, Ducksalad” value (ducksalad; 62 g ai/ha) was 60, the “Plant response rating, Ducksalad” value (ducksalad; 125 g ai/ha) was 100 and the “Plant response rating, Ducksalad” value (ducksalad; 250 g ai/ha) was 100. The “Plant response rating, Barnyardgrass” value (barnyardgrass) was 75, the “Foxtail, Giant plant response rating” value (foxtail, giant; [9]) was 10 and the “Foxtail, Giant plant response rating” value (foxtail, giant; [10]) was 70. The “Plant response rating, Foxtail, Giant” value (foxtail, giant; [12]) was 75 and the “Plant response rating (scale of 0 to 100), Foxtail, Giant” value (foxtail, giant; Preemergence, 250 g ai/ha) was 90.
